Results on four molecules are retold here after US20230346670A1, “Prebiotic Oral Care Compositions and Methods” (Colgate-Palmolive Company, priority 2020, published 2023).

Several values for one entry are separate records, joined by “and”; a condition that tells them apart may be missing. Equal entries are not always repeated.

The test system of assay [1] is multi-species biofilm (beneficial/commensal species, periodontal pathogens, cariogenic pathogens). Description: Multi-species biofilm composition, relative proportions and group changes. It is filed as cell-based. The procedure:
Biofilms are grown vertically on Calcium Deficient Hydroxyapatite (CAD-HA) disks (Hitemco Medical, Old Bethpage, USA) using the Amsterdam Active Adhesion model. […] After this 24 h, disks are rinsed 3 times a day for 3 minutes (RT, 250 rpm), for 3 consecutive days, by transferring the lid containing the disks to a new 24-well plate containing 2 mL/well of the appropriate substrate solution. As a negative control, PBS (pH 5.7) without substrate supplementation is used. N-acetyl-D-glucosamine (NADG), α-D-lactose, D-(+)-trehalose and D-(+)-raffinose are selected to determine their effects on multi-species biofilm composition. Repeated rinsing of the biofilms with the substrates at a concentration of 1 M results in a significant decrease in absolute numbers in at least four of the pathogenic bacterial species tested in the assay, in comparison to the control, the results of which are described in Table 1 below. Note, NADG decreased absolute numbers of S. sobrinus. Absolute abundances of bacterial species are shown as mean ± SD (n = 3) logarithmic values of the genome equivalents per millilitre (log(Geq/mL)).

The subject of assay [2] is human oral keratinocytes (HOK-18A). Briefly: IL-8 levels in supernatant of keratinocytes exposed to substrate-treated biofilms. It is filed as cell-based. As to conditions: biofilms treated with substrate 1 M; n = 3. The procedure:
Cultures of immortalized human oral keratinocytes (HOK-18A) are grown. […] The IL-8 levels in the cellular supernatant are determined as well. RNA is converted to cDNA and relative expression of inflammatory mediator genes is determined as described above with respect to the cellular housekeeping gene β-actin.

Setting [3] is: Table 1a, substrate 1 M, listed as D-(+)-raffinose.
Setting [4] is: Table 3, separate experiments, concentration not given.
The mark [5] stands for this setting: Table 1a, substrate 1 M, listed as α-D-lactose.
[6] abbreviates: Table 1a, substrate 1 M, listed as D-(+)-trehalose.

Regarding `OC[C@H]1O[C@H](OC[C@H]2O[C@H](O[C@]3(CO)O[C@H](CO)[C@@H](O)[C@@H]3O)[C@H](O)[C@@H](O)[C@@H]2O)[C@H](O)[C@@H](O)[C@H]1O` [D-raffinose, D-(+)-raffinose], in assay [1] (Table 1a, substrate 1 M), the “relative proportion of beneficial or commensal species in biofilm” value is 95.86 (+/- 1.63)^∗ % (Geq/mL), the “relative proportion of cariogenic pathogens in biofilm” value is listed as 1.85 (+/- 0.68) % (Geq/mL) and the “relative proportion of periodontal pathogens in biofilm” value was 2.29 (+/- 1.40)^∗ % (Geq/mL). Further, in assay [1] (setting [3]), the “relative proportion of beneficial or commensal species in biofilm” value is given as 95.86±1.63 % (Geq/mL), the “relative proportion of cariogenic pathogens in biofilm” value is 1.85±0.68 % (Geq/mL) and the “relative proportion of periodontal pathogens in biofilm” value is recorded as 2.29±1.40 % (Geq/mL). In assay [1] (setting [4]), the “relative proportion of beneficials/commensals in biofilm” value is given as 64.27 (+/- 1.84) % (Geq/mL), the “relative proportion of cariogenic pathogens in biofilm” value is 0.27 (+/- 0.09) % (Geq/mL) and the “relative proportion of periodontal pathogens in biofilm” value is 35.46 (+/- 1.82) % (Geq/mL).

For the molecule `OC[C@H]1O[C@@H](O[C@H]2[C@H](O)[C@@H](O)[C@@H](O)O[C@@H]2CO)[C@H](O)[C@@H](O)[C@H]1O` [D-lactose, α-D-lactose], in assay [1] (Table 1a, substrate 1 M), the “relative proportion of beneficial or commensal species in biofilm” value is recorded as 92.72 (+/- 4.39)^∗ % (Geq/mL), the “relative proportion of cariogenic pathogens in biofilm” value was 5.82 (+/- 3.94) % (Geq/mL) and the “relative proportion of periodontal pathogens in biofilm” value is on record as 1.46 (+/- 0.64)^∗ % (Geq/mL). Also, in assay [1] (setting [5]), the “relative proportion of beneficial or commensal species in biofilm” value is listed as 92.72±4.39 % (Geq/mL), the “relative proportion of cariogenic pathogens in biofilm” value was 5.82±3.94 % (Geq/mL) and the “relative proportion of periodontal pathogens in biofilm” value is 1.46±0.64 % (Geq/mL). Besides, in assay [1] (setting [4]), the “relative proportion of beneficials/commensals in biofilm” value was 64.14 (+/- 9.81) % (Geq/mL), the “relative proportion of cariogenic pathogens in biofilm” value is listed as 0.21 (+/- 0.08) % (Geq/mL) and the “relative proportion of periodontal pathogens in biofilm” value was 35.65 (+/- 9.88) % (Geq/mL). Further, the “Mean ± SD IL-8 levels in HOK-18A supernatant” value in assay [2] is given as “< LOD^∗”.

Regarding `OC[C@H]1O[C@H](O[C@H]2O[C@H](CO)[C@@H](O)[C@H](O)[C@H]2O)[C@H](O)[C@@H](O)[C@@H]1O` [D-trehalose, D-(+)-trehalose], in assay [1] (Table 1a, substrate 1 M), the “relative proportion of beneficial or commensal species in biofilm” value is 88.98 (+/- 9.12)^∗ % (Geq/mL), the “relative proportion of cariogenic pathogens in biofilm” value was 9.22 (+/- 8.55) % (Geq/mL) and the “relative proportion of periodontal pathogens in biofilm” value is 1.80 (+/- 1.04)^∗ % (Geq/mL). In addition, in assay [1] (setting [6]), the “relative proportion of beneficial or commensal species in biofilm” value is given as 88.98±9.12 % (Geq/mL), the “relative proportion of cariogenic pathogens in biofilm” value was 9.22±8.55 % (Geq/mL) and the “relative proportion of periodontal pathogens in biofilm” value is 1.80±1.04 % (Geq/mL). For the same molecule, in assay [1] (setting [4]), the “relative proportion of beneficials/commensals in biofilm” value is 73.55 (+/- 2.84) % (Geq/mL), the “relative proportion of cariogenic pathogens in biofilm” value is given as 0.21 (+/- 0.05) % (Geq/mL) and the “relative proportion of periodontal pathogens in biofilm” value is recorded as 26.23 (+/- 2.88) % (Geq/mL).

For the molecule `CC(=O)N[C@H]1C(O)O[C@H](CO)[C@@H](O)[C@@H]1O` (stereo partly drawn) [NADG, N-acetyl-D-glucosamine], in assay [1] (Table 1a, substrate 1 M), the “relative proportion of beneficial or commensal species in biofilm” value is 97.86±1.11 % (Geq/mL) and 97.86 (+/- 1.11)^∗ % (Geq/mL); the “relative proportion of cariogenic pathogens in biofilm” value was 0.68±0.33 % (Geq/mL) and 0.68 (+/- 0.33) % (Geq/mL); the “relative proportion of periodontal pathogens in biofilm” value is 1.46±0.97 % (Geq/mL) and 1.46 (+/- 0.97)^∗ % (Geq/mL). Further, in assay [1] (setting [4]), the “relative proportion of beneficials/commensals in biofilm” value is 60.07 (+/- 8.25) % (Geq/mL); the “relative proportion of cariogenic pathogens in biofilm” value is 0.66±0.27 % (Geq/mL) and 0.66 (+/- 0.27^∗) % (Geq/mL); the “relative proportion of periodontal pathogens in biofilm” value is recorded as 39.27 (+/- 7.98) % (Geq/mL).
